From ChEMBL document CHEMBL1938230, “6-Position optimization of tricyclic 4-quinolone-based inhibitors of glycogen synthase kinase-3β: discovery of nitrile derivatives with picomolar potency” (Bioorg Med Chem Lett, 2012)

Experiments:
[1] = biological target: Tyrosine-protein kinase ABL (Homo sapiens) (UniProt P00519+P42684); assay: Inhibition of human ABL/ARG in HL-60 cells lysate assessed as reduction of labeling of acyl-phosphate ATP probe at 100 nM; type: cell-free
[2] = biological target: Cyclin-dependent kinase 5 (Homo sapiens) (UniProt Q00535); assay: Inhibition of human CDK5 in HL-60 cells lysate assessed as reduction of labeling of acyl-phosphate ATP probe at 100 nM; type: cell-free
[3] = biological target: T1, Serine/threonine-protein kinase tousled-like 1 (Homo sapiens) (UniProt Q9UKI8); assay: Inhibition of human TLK1 in HL-60 cells lysate assessed as reduction of labeling of acyl-phosphate ATP probe at 100 nM; type: cell-free
T1 sequence (whole entry): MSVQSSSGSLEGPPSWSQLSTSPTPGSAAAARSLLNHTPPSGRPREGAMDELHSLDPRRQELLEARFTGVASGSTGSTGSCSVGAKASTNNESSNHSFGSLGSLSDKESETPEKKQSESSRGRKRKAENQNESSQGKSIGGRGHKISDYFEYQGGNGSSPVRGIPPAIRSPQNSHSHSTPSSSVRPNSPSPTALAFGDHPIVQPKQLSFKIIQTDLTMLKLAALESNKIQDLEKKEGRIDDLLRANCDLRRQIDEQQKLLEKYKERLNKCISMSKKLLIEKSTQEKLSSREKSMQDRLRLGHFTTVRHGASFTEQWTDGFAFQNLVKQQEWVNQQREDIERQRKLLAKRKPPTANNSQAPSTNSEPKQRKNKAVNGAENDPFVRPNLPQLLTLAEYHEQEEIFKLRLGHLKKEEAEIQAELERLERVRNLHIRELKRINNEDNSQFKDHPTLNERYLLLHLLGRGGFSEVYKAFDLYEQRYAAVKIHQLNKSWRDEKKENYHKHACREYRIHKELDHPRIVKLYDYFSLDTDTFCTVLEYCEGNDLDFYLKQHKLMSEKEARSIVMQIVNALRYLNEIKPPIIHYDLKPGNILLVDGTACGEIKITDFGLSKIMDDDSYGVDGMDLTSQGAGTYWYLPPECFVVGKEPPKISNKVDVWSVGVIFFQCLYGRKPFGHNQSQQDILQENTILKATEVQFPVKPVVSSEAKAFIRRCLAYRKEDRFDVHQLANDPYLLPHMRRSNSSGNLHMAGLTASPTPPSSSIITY

HL-60 [4] = assay: Inhibition of human CDK11/CDK8 in HL-60 cells lysate assessed as reduction of labeling of acyl-phosphate ATP probe at 100 nM
HL-60 [5] = assay: Inhibition of human PITSLRE in HL-60 cells lysate assessed as reduction of labeling of acyl-phosphate ATP probe at 100 nM
[6] = biological target: Tyrosine-protein kinase Lyn (Homo sapiens) (UniProt P07948); assay: Inhibition of human LYN in HL-60 cells lysate assessed as reduction of labeling of acyl-phosphate ATP probe at 100 nM; type: cell-free
[7] = biological target: T2, Inhibitor of nuclear factor kappa-B kinase subunit epsilon (Homo sapiens) (UniProt Q14164); assay: Inhibition of human IKKepsilon in HL-60 cells lysate assessed as reduction of labeling of acyl-phosphate ATP probe at 100 nM; type: cell-free
T2 sequence (whole entry): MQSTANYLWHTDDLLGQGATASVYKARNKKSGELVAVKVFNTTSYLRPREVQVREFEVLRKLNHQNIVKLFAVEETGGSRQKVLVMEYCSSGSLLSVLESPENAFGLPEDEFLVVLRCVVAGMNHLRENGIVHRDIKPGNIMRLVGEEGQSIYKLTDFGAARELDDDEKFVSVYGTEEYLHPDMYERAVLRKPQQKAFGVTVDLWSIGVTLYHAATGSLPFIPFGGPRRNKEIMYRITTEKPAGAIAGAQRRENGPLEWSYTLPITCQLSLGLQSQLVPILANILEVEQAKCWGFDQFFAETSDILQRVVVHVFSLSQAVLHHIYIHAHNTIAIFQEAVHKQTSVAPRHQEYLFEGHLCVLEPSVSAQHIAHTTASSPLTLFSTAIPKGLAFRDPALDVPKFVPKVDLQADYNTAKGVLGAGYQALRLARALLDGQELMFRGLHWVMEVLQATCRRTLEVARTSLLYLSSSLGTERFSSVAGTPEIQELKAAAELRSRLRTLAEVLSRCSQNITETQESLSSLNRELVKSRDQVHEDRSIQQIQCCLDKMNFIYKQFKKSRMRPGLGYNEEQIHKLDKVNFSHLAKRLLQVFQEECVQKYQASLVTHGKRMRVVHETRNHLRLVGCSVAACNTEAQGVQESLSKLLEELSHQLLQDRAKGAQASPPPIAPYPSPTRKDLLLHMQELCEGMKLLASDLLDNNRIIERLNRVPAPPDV

[8] = biological target: Tyrosine-protein kinase CSK (Homo sapiens) (UniProt P41240); assay: Inhibition of human CSK in HL-60 cells lysate assessed as reduction of labeling of acyl-phosphate ATP probe at 100 nM; type: cell-free
[9] = biological target: T3, Dual specificity mitogen-activated protein kinase kinase 3 (Homo sapiens) (UniProt P46734); assay: Inhibition of human MAP2K3 in HL-60 cells lysate assessed as reduction of labeling of acyl-phosphate ATP probe at 100 nM; type: cell-free
T3 sequence (whole entry): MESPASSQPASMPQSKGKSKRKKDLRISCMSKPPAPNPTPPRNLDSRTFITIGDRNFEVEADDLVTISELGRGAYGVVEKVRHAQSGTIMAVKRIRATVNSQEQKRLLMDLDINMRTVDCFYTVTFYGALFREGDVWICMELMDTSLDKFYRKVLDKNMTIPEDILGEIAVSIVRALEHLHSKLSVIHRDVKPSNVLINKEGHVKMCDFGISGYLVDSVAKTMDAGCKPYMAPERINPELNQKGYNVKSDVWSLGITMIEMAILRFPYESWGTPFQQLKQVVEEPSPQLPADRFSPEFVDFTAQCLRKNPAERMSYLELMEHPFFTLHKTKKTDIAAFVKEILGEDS

[10] = biological target: T4, Mixed lineage kinase domain-like protein (Homo sapiens) (UniProt Q8NB16); assay: Inhibition of human MLKL in HL-60 cells lysate assessed as reduction of labeling of acyl-phosphate ATP probe at 100 nM; type: cell-free
T4 sequence (whole entry): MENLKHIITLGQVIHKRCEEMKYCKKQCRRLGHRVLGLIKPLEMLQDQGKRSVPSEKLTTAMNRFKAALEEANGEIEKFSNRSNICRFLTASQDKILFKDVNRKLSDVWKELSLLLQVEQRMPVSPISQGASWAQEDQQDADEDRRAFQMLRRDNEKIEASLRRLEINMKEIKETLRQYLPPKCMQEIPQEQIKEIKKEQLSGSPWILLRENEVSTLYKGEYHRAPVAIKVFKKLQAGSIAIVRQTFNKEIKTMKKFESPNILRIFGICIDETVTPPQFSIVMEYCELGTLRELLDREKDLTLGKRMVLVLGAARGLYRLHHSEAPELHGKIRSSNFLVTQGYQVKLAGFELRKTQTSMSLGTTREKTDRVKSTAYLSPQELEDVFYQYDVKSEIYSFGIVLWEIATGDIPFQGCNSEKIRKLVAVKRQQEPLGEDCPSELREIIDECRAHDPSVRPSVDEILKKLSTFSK

Sequence of Tyrosine-protein kinase ABL (Homo sapiens) (P00519 whole entry, looked up): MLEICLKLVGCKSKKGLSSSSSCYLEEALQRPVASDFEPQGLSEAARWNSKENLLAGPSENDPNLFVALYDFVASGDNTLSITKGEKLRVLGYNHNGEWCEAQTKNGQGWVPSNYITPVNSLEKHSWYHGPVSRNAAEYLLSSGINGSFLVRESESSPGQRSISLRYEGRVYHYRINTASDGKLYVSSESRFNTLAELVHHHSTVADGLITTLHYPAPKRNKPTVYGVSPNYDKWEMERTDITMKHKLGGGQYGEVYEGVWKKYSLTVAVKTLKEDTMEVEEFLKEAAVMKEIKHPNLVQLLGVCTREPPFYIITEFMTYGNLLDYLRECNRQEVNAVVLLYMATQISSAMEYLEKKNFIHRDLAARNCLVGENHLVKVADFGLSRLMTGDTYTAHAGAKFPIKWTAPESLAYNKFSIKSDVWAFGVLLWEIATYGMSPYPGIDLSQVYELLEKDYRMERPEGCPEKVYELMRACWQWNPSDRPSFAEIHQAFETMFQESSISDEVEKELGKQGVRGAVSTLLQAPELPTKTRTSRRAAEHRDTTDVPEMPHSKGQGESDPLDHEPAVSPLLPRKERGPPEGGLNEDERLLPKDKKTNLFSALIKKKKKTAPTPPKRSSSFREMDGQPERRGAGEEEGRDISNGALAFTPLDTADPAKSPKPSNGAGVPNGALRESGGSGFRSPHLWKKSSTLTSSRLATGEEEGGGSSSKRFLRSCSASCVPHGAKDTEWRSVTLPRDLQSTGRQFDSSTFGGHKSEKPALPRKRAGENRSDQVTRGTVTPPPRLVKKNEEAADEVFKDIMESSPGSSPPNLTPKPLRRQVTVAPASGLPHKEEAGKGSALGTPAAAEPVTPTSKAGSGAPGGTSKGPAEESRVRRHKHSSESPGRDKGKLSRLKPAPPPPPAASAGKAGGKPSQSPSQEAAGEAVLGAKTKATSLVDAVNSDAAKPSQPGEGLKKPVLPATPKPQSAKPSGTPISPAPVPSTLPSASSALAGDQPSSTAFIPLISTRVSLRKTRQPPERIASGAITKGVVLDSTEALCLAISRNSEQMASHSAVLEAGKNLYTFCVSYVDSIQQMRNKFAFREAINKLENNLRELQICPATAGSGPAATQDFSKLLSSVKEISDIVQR
Sequence of Tyrosine-protein kinase ABL (Homo sapiens) (P42684 whole entry, looked up): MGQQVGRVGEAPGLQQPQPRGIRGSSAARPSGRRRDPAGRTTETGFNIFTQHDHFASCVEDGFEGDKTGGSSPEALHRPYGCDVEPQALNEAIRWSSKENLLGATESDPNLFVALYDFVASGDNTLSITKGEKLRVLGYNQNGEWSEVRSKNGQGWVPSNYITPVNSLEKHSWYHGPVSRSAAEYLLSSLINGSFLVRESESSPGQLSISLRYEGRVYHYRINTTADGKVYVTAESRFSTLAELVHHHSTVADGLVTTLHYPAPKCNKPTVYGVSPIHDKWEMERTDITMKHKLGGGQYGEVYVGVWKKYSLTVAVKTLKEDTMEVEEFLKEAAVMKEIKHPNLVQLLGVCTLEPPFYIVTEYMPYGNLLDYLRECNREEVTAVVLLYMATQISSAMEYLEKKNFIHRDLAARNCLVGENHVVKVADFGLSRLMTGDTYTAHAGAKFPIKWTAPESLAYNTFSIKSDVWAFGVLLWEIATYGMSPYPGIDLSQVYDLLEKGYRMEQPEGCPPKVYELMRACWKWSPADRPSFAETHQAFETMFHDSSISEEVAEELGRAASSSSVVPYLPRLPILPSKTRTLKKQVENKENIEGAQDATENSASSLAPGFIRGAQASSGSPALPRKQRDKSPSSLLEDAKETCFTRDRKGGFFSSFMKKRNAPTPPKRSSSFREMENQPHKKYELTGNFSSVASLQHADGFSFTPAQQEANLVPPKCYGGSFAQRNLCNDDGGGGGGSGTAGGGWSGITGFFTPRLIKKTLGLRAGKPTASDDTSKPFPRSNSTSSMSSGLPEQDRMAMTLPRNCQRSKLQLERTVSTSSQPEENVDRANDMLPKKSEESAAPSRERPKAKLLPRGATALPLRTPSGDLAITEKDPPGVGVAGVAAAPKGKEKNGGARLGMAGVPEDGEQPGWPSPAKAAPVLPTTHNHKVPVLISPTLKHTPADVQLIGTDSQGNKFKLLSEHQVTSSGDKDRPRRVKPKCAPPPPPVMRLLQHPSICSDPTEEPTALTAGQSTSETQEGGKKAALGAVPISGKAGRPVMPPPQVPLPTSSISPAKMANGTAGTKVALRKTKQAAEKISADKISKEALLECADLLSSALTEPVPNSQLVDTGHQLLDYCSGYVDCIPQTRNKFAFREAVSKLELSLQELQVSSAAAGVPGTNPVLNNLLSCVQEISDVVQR
Sequence of Cyclin-dependent kinase 5 (Homo sapiens) (Q00535 whole entry, looked up): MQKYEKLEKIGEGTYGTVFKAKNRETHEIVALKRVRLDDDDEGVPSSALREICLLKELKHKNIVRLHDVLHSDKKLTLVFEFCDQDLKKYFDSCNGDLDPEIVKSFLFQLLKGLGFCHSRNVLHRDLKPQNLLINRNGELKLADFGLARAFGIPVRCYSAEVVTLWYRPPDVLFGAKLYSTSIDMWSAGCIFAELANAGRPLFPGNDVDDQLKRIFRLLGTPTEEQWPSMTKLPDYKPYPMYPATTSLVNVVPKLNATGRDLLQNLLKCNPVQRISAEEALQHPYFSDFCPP
Sequence of Tyrosine-protein kinase CSK (Homo sapiens) (P41240 2-450 limits assumed): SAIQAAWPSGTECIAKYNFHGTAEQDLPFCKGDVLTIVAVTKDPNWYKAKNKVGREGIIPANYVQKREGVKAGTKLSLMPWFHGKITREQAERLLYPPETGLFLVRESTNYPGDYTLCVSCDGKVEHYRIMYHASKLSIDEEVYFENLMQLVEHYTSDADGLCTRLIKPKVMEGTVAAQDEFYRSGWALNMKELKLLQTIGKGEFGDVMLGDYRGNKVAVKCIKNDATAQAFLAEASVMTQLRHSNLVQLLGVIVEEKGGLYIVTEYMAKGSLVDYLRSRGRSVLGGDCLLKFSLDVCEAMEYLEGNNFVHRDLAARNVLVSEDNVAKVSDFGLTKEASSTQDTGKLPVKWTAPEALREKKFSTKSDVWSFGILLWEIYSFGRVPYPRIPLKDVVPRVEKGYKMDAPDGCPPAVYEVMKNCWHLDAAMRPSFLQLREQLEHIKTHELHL
Sequence of Tyrosine-protein kinase Lyn (Homo sapiens) (P07948 2-512 limits assumed): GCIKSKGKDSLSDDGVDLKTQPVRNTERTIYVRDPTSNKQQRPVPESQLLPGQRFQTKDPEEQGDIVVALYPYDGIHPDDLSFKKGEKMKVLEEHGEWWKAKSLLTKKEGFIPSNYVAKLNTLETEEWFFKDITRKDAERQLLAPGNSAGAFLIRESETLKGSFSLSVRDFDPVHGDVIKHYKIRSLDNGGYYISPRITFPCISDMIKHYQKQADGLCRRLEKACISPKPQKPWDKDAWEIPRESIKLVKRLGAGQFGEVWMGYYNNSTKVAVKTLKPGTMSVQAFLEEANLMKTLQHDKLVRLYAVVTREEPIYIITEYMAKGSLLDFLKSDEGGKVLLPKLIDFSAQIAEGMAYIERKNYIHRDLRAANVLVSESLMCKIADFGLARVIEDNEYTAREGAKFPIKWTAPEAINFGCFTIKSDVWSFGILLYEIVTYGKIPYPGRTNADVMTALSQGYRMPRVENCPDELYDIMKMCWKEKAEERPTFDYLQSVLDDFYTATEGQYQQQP

| inhibition [1] [%] | inhibition [2] [%] | inhibition [3] [%] | inhibition [6] [%] | inhibition [7] [%] | inhibition [8] [%] | inhibition [9] [%] | inhibition [10] [%] | Compound | inhibition at 0.1 µM (HL-60 [4]) [%] | inhibition at 0.1 µM (HL-60 [5]) [%] |
| --- | --- | --- | --- | --- | --- | --- | --- | --- | --- | --- |
| < 35 | < 35 | < 35 | < 35 | < 35 | < 35 | < 35 | < 35 | C[C@H]1COc2c(NCCCc3ccccn3)c(F)c(N)c3c(=O)c(C#N)cn1c23 | < 35 | < 35 |
| < 35 | < 35 | < 35 | < 35 | < 35 | < 35 | < 35 | < 35 | C[C@H]1COc2c(NCCCn3cccn3)c(F)c(N)c3c(=O)c(C#N)cn1c23 | < 35 | < 35 |
| < 35 | < 35 | < 35 | < 35 | < 35 | < 35 | < 35 | < 35 | C[C@H]1COc2c(NCCCc3ccccn3)c(F)c(N)c3c(=O)c(C(=O)O)cn1c23 | < 35 | < 35 |
| < 35 | < 35 | < 35 | < 35 | < 35 | < 35 | < 35 | < 35 | C[C@H]1COc2c(NCCCn3cccn3)c(F)c(N)c3c(=O)c(C(=O)O)cn1c23 | < 35 | < 35 |
